According to ChEMBL document CHEMBL5360531, “Pyrazolone derivatives as potent and selective small-molecule SIRT5 inhibitors” (Eur J Med Chem, 2023):

Key:
[1] = biological target: T1, NAD-dependent protein deacylase sirtuin-5, mitochondrial (Homo sapiens, UniProt Q9NXA8); assay: Inhibition of human SIRT5 by fluorescence based analysis
[2] = biological target: T1, NAD-dependent protein deacylase sirtuin-5, mitochondrial; assay: Inhibition of human SIRT5

T1 sequence (Q9NXA8 whole entry): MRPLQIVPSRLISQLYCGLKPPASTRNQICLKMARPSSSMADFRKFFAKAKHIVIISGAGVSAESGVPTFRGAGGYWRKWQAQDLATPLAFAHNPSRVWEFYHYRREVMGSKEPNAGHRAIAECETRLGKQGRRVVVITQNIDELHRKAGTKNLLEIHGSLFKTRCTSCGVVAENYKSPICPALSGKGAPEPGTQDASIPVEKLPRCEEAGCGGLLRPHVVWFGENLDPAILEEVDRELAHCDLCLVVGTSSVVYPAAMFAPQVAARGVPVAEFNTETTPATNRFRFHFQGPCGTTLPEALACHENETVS

IC50 [1] [µM] | IC50 [2] [nM] | SMILES
16.5 | – | COC(=O)c1ccc(/C=C2/C(=O)N(c3nc(-c4cccc(C#N)c4)cs3)N=C2C)cc1
6.28 | – | CC1=NN(c2nc(-c3ccc(F)cc3)cs2)C(=O)/C1=C/c1ccc(Cl)cc1
4.45 | – | CC1=NN(c2nc(-c3cccc(C)c3)cs2)C(=O)/C1=C/c1ccc(C(=O)O)cc1
36.8 | – | COc1ccc(-c2csc(N3N=C(C)/C(=C\c4ccc(C)cc4)C3=O)n2)cc1
5.54 | – | COc1ccccc1-c1csc(N2N=C(C)/C(=C\c3ccc(C(=O)O)cc3)C2=O)n1
1.82 | – | COc1ccc(-c2csc(N3N=C(C)/C(=C\c4ccc(C(=O)O)cc4)C3=O)n2)cc1
5.26 | – | COC(=O)c1ccc(/C=C2/C(=O)N(c3nc(-c4ccc(C#N)cc4)cs3)N=C2C)cc1
5.83 | – | COC(=O)c1ccc(/C=C2/C(=O)N(c3nc(-c4ccc(F)cc4)cs3)N=C2C)cc1
0.85 | – | CC1=NN(c2nc(-c3ccc(F)cc3)cs2)C(=O)/C1=C/c1ccc(C(=O)O)cc1
1.92 | – | CC1=NN(c2nc(-c3ccc(O)cc3)cs2)C(=O)/C1=C/c1ccc(C(=O)O)cc1
2.56 | – | COC(=O)c1ccc(/C=C2/C(=O)N(c3nc(-c4ccc(Cl)cc4)cs3)N=C2C)cc1
4.36 | – | COC(=O)c1ccc(/C=C2/C(=O)N(c3nc(-c4ccc(Br)cc4)cs3)N=C2C)cc1
20.5 | – | COC(=O)c1ccc(/C=C2/C(=O)N(c3nc(-c4cccc(C)c4)cs3)N=C2C)cc1
10.6 | – | COC(=O)c1ccc(/C=C2/C(=O)N(c3nc(-c4cccc(F)c4)cs3)N=C2C)cc1
1.72 | – | CC1=NN(c2nc(-c3ccc(Br)cc3)cs2)C(=O)/C1=C/c1ccc(C(=O)O)cc1
3.08 | – | COc1cccc(-c2csc(N3N=C(C)/C(=C\c4ccc(C(=O)O)cc4)C3=O)n2)c1
4.18 | – | CC1=NN(c2nc(-c3ccccc3F)cs2)C(=O)/C1=C/c1ccc(C(=O)O)cc1
15.8 | – | COC(=O)c1ccc(/C=C2/C(=O)N(c3nc(-c4cccc(OC)c4)cs3)N=C2C)cc1

IC50 [1] [µM] | IC50 [2] [nM] | SMILES
1.86 | – | CC1=NN(c2nc(-c3cccc(F)c3)cs2)C(=O)/C1=C/c1ccc(C(=O)O)cc1
1.28 | – | CC1=NN(c2nc(-c3ccc(C)cc3)cs2)C(=O)/C1=C/c1ccc(C(=O)O)cc1
1.05 | – | CC1=NN(c2nc(-c3ccc(C#N)cc3)cs2)C(=O)/C1=C/c1ccc(C(=O)O)cc1
12.7 | – | COC(=O)c1ccc(/C=C2/C(=O)N(c3nc(-c4ccccc4F)cs3)N=C2C)cc1
2.84 | – | COC(=O)c1ccc(/C=C2/C(=O)N(c3nc(-c4ccc(C(F)(F)F)cc4)cs3)N=C2C)cc1
2.28 | – | COC(=O)c1ccc(/C=C2/C(=O)N(c3nc(-c4cccc(C(F)(F)F)c4)cs3)N=C2C)cc1
22.6 | – | COc1ccc(-c2csc(N3N=C(C)/C(=C\c4ccc(Cl)cc4)C3=O)n2)cc1
7.56 | – | CC1=NN(c2nc(-c3ccc(Cl)cc3)cs2)C(=O)/C1=C/c1ccc(Cl)cc1
20.6 | – | COC(=O)c1ccc(/C=C2/C(=O)N(c3nc(-c4ccccc4OC)cs3)N=C2C)cc1
0.52 | – | CC1=NN(c2nc(-c3ccc(C(F)(F)F)cc3)cs2)C(=O)/C1=C/c1ccc(C(=O)O)cc1
– | 2200 | N=C(N)NCCC[C@@H]1NC(=O)CCC(=O)NCCCC[C@@H](C(N)=O)NC(=O)[C@H](CCCCNC(=S)NCCC(=O)O)NC1=O
6.54 | – | COC(=O)c1ccc(/C=C2/C(=O)N(c3nc(-c4ccc(C)cc4)cs3)N=C2C)cc1
10.2 | – | COC(=O)c1ccc(/C=C2/C(=O)N(c3nc(-c4ccc(OC)cc4)cs3)N=C2C)cc1
12.5 | – | CC1=NN(c2nc(-c3ccc(Br)cc3)cs2)C(=O)/C1=C/c1ccc(Cl)cc1
4.16 | – | CC1=NN(c2nc(-c3cccc(C#N)c3)cs2)C(=O)/C1=C/c1ccc(C(=O)O)cc1
12.8 | – | COC(=O)c1ccc(/C=C2/C(=O)N(c3nc(-c4ccc(O)cc4)cs3)N=C2C)cc1
13.8 | – | CC1=NN(c2nc(-c3ccccc3F)cs2)C(=O)/C1=C/c1ccc(C#N)cc1
